Source: patent publication US20170216252A1, “ANTI-BACTERIAL PYRUVATE KINASE MODULATOR COMPOUNDS, COMPOSITIONS, USES AND METHODS” (SIMON FRASER UNIVERSITY, priority 2014, published 2017)
Converted amounts (≈) assume the structure as drawn. Like-named read-outs stand apart in the source and are kept apart here.

Tests used:
MRSA PK = target: T1, MRSA PK (Staphylococcus aureus, UniProt Q6GG09); test: MRSA PK activity, continuous LDH-coupled assay; type: biochemical, S. aureus (MRSA strain Sanger 252)
T1 construct: His tag (pET-28a(+) vector) (N); made in house; host or cells: E. coli BL-21 (DE3)
T1 sequence (Q6GG09 whole entry): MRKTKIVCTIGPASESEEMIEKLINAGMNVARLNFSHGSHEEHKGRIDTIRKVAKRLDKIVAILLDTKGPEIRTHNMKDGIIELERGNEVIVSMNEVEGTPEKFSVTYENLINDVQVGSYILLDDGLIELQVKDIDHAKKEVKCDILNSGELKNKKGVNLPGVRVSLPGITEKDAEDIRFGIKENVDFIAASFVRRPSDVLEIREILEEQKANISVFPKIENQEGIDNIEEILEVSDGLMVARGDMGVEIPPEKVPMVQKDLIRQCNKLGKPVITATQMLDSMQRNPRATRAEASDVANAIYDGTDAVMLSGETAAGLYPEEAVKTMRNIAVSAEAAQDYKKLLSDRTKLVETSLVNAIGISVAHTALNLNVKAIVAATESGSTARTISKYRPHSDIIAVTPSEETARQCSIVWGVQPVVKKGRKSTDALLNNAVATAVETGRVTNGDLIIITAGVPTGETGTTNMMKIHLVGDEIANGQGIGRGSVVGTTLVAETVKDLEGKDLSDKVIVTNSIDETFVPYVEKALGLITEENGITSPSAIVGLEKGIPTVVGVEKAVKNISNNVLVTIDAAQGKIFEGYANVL
Source text: Genomic DNA of MRSA strain Sanger 252 extracted using DNeasy Tissue Kit™ (Qiagen™) was used as a template to generate the His-tagged MRSA PK. Human cDNA from MCF-7 breast cancer cell line (courtesy of Dr. J Wong, BC Cancer Research Center (Vancouver, Canada) was used as a template to generate the full-length human M2 PK enzyme. The following primer sets were used creating appropriate restriction sites (NdeI and XhoI sites underlined): For cloning of MRSA PK: M27F 5′-[…]-3′ and M27R 5′-[…]-3′, for cloning of human M2 PK isoform: hM2F 5′-[…]-3′ and hM2R 5′-[…]-3′. The resulting PCR fragments for each construct were cloned into the NdeI and XhoI unique sites of the bacterial expression vector pET-28a (+) (Novagen™). […] The sequence and the correct reading frame of all constructs were verified by sequencing. Human M1, R and L PK constructs in pET-28-a(+) vectors (courtesy of Dr. L. Cantley, Harvard Medical, School (Boston, USA)) were used to generate relevant recombinant His-tagged human PK isoforms.
MRSA and human constructs in pET-28a(+) were used to express relevant recombinant PK proteins in E. coli BL-21 (DE3). The proteins were expressed and purified using Ni-NTA agarose (Qiagen™) according to the manufacturer's protocol. Briefly, cells were grown to an absorbance of 0.4-0.5 at 600 nm in 2×YT medium, then induced with 0.1 mM IPTG for 3 h at 20° C. Cells were lysed by sonication on ice (3×10-s bursts with a 30-s recovery between bursts) in lysis buffer (0.2 mg/ml lysozyme, 50 mM Tris pH 7.5, 10 mM MgCl2, 200 mM NaCl, 100 mM KCl, 10% glycerol, 10 mM imidazole, 0.5% NP-40 and 1 mM DTT containing Complete™ protease inhibitor). Cell lysates were cleared by centrifugation (18,000×g in a Beckman™ JA-20 rotor) for 20 min at 4° C. and PK isoforms were purified by batch binding to Ni-NTA resin. The resins were then packed in columns (1×2 cm) and washed with 400 column volumes lysis buffer containing 30 mM imidazole. His-tagged PK isoforms were eluted with the same buffer containing 300 mM imidazole. The proteins were dialyzed overnight at 4° C. against 2000 volumes of ice-cold 30 mM Tris pH 7.5, 25 mM KCl, 5 mM MgCl2, 10% glycerol and 1 mM DTT to remove imidazole. All purification steps were done at 4° C.; enzymes were flash-frozen and stored at −70° C. […] Purity and physical integrity of proteins were assessed using SDS-polyacrylamide gel electrophoresis (SDS-PAGE) followed by coomassie blue staining. Protein concentration was estimated by Bradford assay (Bio-Rad Protein Assay™) using bovine serum albumin as a standard.
Candidate MRSA PK inhibitors were assayed for their ability to inhibit enzymatic activities of MRSA and human PKs. PK activity was determined using a continuous assay coupled to lactate dehydrogenase (LDH) in which the change in absorbance at 340 nm owing to oxidation of NADH was measured using a Benchmark Plus™ microplate spectrophotometer (Bio-Rad Laboratories, Hercules, Calif.). […] Reactions were initiated by the addition of 15 nM of one of the PK enzymes. PK activity proportional to the rate of change at 340 nm was expressed as specific activity (μmol/min/mg), which is defined as the amount of PK that catalyzes the formation of one micromole of either product per minute. Inhibitors were dissolved in DMSO with the final concentration of the solvent never exceeding 1% of the assay volume. IC50 values were calculated by curve fitting on a four-parameter dose-response model with variable slope using Graphpad Prism 5.0™ (GraphPad™ Software Inc., La Jolla, Calif.). […] Reactions were performed at 30° C. for up to 5 min. All values determined represent at least two measurements, in triplicate (Tables 1-6) or duplicate unless mentioned otherwise.

S. aureus ATCC 29213 = test: In vitro susceptibility, broth microdilution MIC; type: cell-based, Staphylococcus aureus
Experimental: The antimicrobial activities of PK inhibitor candidates were determined using the 96-well microtiter standard 2-fold serial broth microdilution method as described by CLSI (formerly NCCLS) with the various gram-positive and gram-negative bacteria species mentioned above. Bacteria from a single colony were grown, overnight in either BHI Broth (VRE), mueller hinton broth (S. aureus 29213; MRSA USA400) or L-broth (E. coli, P. aeruginosa, S. typhimuriu, K. Pneumonia and A. baumannii). […] Culture plates were incubated for 18-24 h at 37° C., and optical density at 600 nm (OD600) was measured using a Benchmark Plus™ microplate spectrophotometer (Bio-Rad™). The absorbance control values for the series containing CAMHB and inhibitor were subtracted as background from the corresponding infected wells. The MIC was defined as the lowest concentration of test compound leading to complete inhibition of cell growth in relationship to compound-free control wells as determined by optical density. […] All assays were run in triplicate (Tables 1-6) or duplicate. Experiments were replicated at least twice to verify reproducibility using the above conditions.

[1] = Staphylococcus aureus, ATCC29213, Table 8, tested at least in duplicate, differing values all given, read-out: MIC
[2] = Staphylococcus aureus, ATCC29213, Tables 1-6 and text, minimum concentration to give >98% inhibition of growth, read-out: MIC
[3] = read-out: % inhibition at the highest concentration tested (IC50)
[4] = Table 8, tested at least in duplicate, differing values all given

## COC(=O)c1c(C(=O)Nc2ccc(Cl)cc2)[nH]c2cc(Br)ccc12 [Compound 130, Methyl 6-bromo-2-((4-chlorophenyl)carbamoyl)-1H-indole-3-carboxylate]
MRSA PK
  IC50: < 50 nM
S. aureus ATCC 29213; [1]
  MIC: > 64 µg/mL

## O=C(Nc1ccc(Br)cc1)c1[nH]c2cc(Br)ccc2c1C(=O)O [Compound 132, 6-Bromo-2-((4-bromophenyl)carbamoyl)-1H-indole-3-carboxylic acid]
MRSA PK
  IC50: < 50 nM
S. aureus ATCC 29213; [1]
  MIC: 16 µg/mL (≈ 36.5 µM)

## Brc1ccc2cc(CCc3cn4ccccc4n3)[nH]c2c1 [Compound 125, 2-(2-(6-Bromo-1H-indol-2-yl)ethyl)imidazo[1,2-a]pyridine]
MRSA PK
  IC50: > 1000 nM
S. aureus ATCC 29213; [1]
  MIC: > 64 µg/mL

## O=C(Nc1nc2ccc(Br)cc2s1)c1cccc(Br)c1O [Compound 70, 3-Bromo-N-(6-bromobenzo[d]thiazol-2-yl)-2-hydroxybenzamide]
MRSA PK; Tables 1-6, 2 mM ADP, 10 mM PEP, 15 nM PK, read-out: IC50
  IC50: 42.9 nM
S. aureus ATCC 29213; [2]
  MIC: 4 µg/mL (≈ 9.34 µM)

## O=C(Nc1cc(Br)ccc1O)c1cc2ccc(Br)cc2[nH]1 [Compound 62, 6-Bromo-N-(5-bromo-2-hydroxyphenyl)-1H-indole-2-carboxamide]
MRSA PK
  IC50: 12.3 nM
S. aureus ATCC 29213; [2]
  MIC: > 64 µg/mL

## COC(=O)c1c(C(=O)Nc2ccc(OC)nc2)[nH]c2cc(Br)ccc12 [Compound 135, Methyl 6-bromo-2-((6-methoxypyridin-3-yl)carbamoyl)-1H-indole-3-carboxylate]
MRSA PK
  EC50: 31.7 nM
S. aureus ATCC 29213; [1]
  MIC: > 64 µg/mL

## O=C(Nc1nc2cc(Br)ccc2s1)c1cc(Br)ccc1O [Compound 50, 5-Bromo-N-(5-bromobenzo[d]thiazol-2-yl)-2-hydroxybenzamide]
MRSA PK; [3]
  inhibition at 10 µM: 60%
S. aureus ATCC 29213; [2]
  MIC: > 64 µg/mL

## CC(=O)c1c(-c2cc3ccccc3[nH]2)[nH]c2cc(Br)ccc12 [Compound 91, 1-(6-bromo-1H,1′H-[2,2′-biindol]-3-yl)ethan-1-one]
MRSA PK
  IC50: 7.7 nM
S. aureus ATCC 29213; [2]
  MIC: 4 µg/mL (≈ 11.3 µM)

## O=C(Nc1ccc(Cl)cc1)c1[nH]c2cc(Br)ccc2c1C(=O)O [Compound 129, 6-Bromo-2-((4-chlorophenyl)carbamoyl)-1H-indole-3-carboxylic acid]
MRSA PK
  IC50: < 50 nM
S. aureus ATCC 29213; [1]
  MIC: 16 µg/mL (≈ 40.6 µM)

## Cc1cnc(/C=C/c2cc3ccc(Br)cc3[nH]2)cn1 [Compound 109, (E)-6-Bromo-2-(2-(5-methylpyrazin-2-yl)vinyl)-1H-indole]
MRSA PK
  IC50: > 1000 nM
S. aureus ATCC 29213; [1]
  MIC: > 64 µg/mL

## Brc1cncc(CCc2cc3ccc(Br)cc3[nH]2)c1 [Compound 121, 6-Bromo-2-(2-(5-bromopyridin-3-yl)ethyl)-1H-indole]
MRSA PK
  IC50: > 1000 nM
S. aureus ATCC 29213; [1]
  MIC: > 64 µg/mL

## O=C(Nc1ccc(Br)cc1)c1cc2ccc(Br)cc2[nH]1 [Compound 63, 6-Bromo-N-(4-bromophenyl)-1H-indole-2-carboxamide]
MRSA PK
  IC50: 9.7 nM
S. aureus ATCC 29213; [2]
  MIC: > 64 µg/mL

## CC(C)C(=O)c1c(CCc2ccc(Cl)cc2)[nH]c2cc(Br)ccc12 [Compound 39c, 1-(6-bromo-2-(4-chlorophenethyl)-1H-indol-3-yl)-2-methylpropan-1-one]
MRSA PK
  IC50: 28 nM
S. aureus ATCC 29213; [2]
  MIC: 4 µg/mL (≈ 9.88 µM)

## Brc1ccc(-c2ccc(-c3cncc(-c4cc5ccccc5[nH]4)n3)cc2)cc1 [Compound 61, 2-(6-(4′-Bromo-[1,1′-biphenyl]-4-yl)pyrazin-2-yl)-1H-indole]
MRSA PK; read-out: % inhibition (IC50)
  inhibition at 0.1 µM: 61%
S. aureus ATCC 29213; [2]
  MIC: > 64 µg/mL

## O=C(Nc1nc2ccc(Br)cc2s1)c1cccc(Cl)c1O [Compound 83, N-(6-bromobenzo[d]thiazol-2-yl)-3-chloro-2-hydroxybenzamide]
MRSA PK; [3]
  inhibition at 1 µM: 89%
S. aureus ATCC 29213; [2]
  MIC: 4 µg/mL (≈ 10.4 µM)

## COc1ccc(NC(=O)c2[nH]c3cc(Br)ccc3c2C(=O)O)cn1 [Compound 136, 6-Bromo-2-((6-methoxypyridin-3-yl)carbamoyl)-1H-indole-3-carboxylic acid]
MRSA PK
  IC50: 100 to 1000 nM
S. aureus ATCC 29213; [1]
  MIC: > 64 µg/mL

## Oc1ccc(Br)cc1/C=N/c1nc2ccc(Br)cc2s1 [Compound 58]
MRSA PK; [3]
  inhibition at 10 µM: 77%
S. aureus ATCC 29213; [2]
  MIC: 64 µg/mL (≈ 155 µM)

## Clc1ccc2[nH]c(-c3cc4ccc(Br)cc4[nH]3)nc2c1 [Compound 164, 2-(6-bromo-1H-indol-2-yl)-5-chloro-1H-benzo[d]imidazole]
MRSA PK
  IC50: < 50 nM
S. aureus ATCC 29213; [1]
  MIC: 1 µg/mL (≈ 2.89 µM)

## O=C(c1c(C#Cc2ncccn2)[nH]c2cc(Br)ccc12)C(F)(F)F [Compound 169, 1-(6-Bromo-2-(pyrimidin-2-ylethynyl)-1H-indol-3-yl)-2,2,2-trifluoroethanone]
MRSA PK
  IC50: > 100000 nM
S. aureus ATCC 29213; [1]
  MIC: > 64 µg/mL

## Brc1ccc2cc(/C=C/c3ccc4ccccc4n3)[nH]c2c1 [Compound 101, (E)-2-(2-(6-bromo-1H-indol-2-yl)vinyl)quinoline]
MRSA PK
  IC50: > 1000 nM
S. aureus ATCC 29213; [1]
  MIC: > 64 µg/mL
S. aureus ATCC 29213; [2]
  MIC: > 64 µg/mL

## Clc1ccc(CCc2nc3ccc(Br)cc3[nH]2)cc1 [Compound 154, 6-bromo-2-(4-chlorophenethyl)-1H-benzo[d]imidazole]
MRSA PK
  IC50: > 1000 nM
S. aureus ATCC 29213; [1]
  MIC: 16 µg/mL (≈ 47.7 µM)
S. aureus ATCC 29213; [4]
  MIC: 32 µg/mL (≈ 95.3 µM)

## O=C(Nc1nc2ccc(Br)cc2s1)c1ccccc1O [Compound 66]
MRSA PK; [3]
  inhibition at 10 µM: 59%
S. aureus ATCC 29213; [2]
  MIC: > 64 µg/mL

## Clc1ccc(CCc2cc3ccc(Br)cc3[nH]2)cn1 [Compound 120, 6-Bromo-2-(2-(6-chloropyridin-3-yl)ethyl)-1H-indole]
MRSA PK
  IC50: 50 to 100 nM
S. aureus ATCC 29213; [1]
  MIC: > 64 µg/mL

## Brc1ccc2[nH]c(C#Cc3cc4cc(Br)ccc4[nH]3)cc2c1 [Compound 45, 1,2-bis(5-Bromo-1H-indol-2-yl)ethyne]
MRSA PK; [3]
  inhibition at 10 µM: 60%
S. aureus ATCC 29213; [2]
  MIC: > 64 µg/mL

## O=C(c1c(-c2cc3ccccc3[nH]2)[nH]c2cc(Br)ccc12)C(F)(F)F [Compound 177, 1-(6-bromo-1H,1′H-[2,2′-biindol]-3-yl)-2,2,2-trifluoroethan-1-one]
MRSA PK
  IC50: > 1000 nM
S. aureus ATCC 29213; [1]
  MIC: 2 µg/mL (≈ 4.91 µM)
S. aureus ATCC 29213; [4]
  MIC: 1 µg/mL (≈ 2.46 µM)
